Experimental data: US8501778B2, “Aralkyl piperidine derivatives and their uses as antalgic or ataractic agent” (priority 2008, dated 2013)
Where a name gives a salt, the structure may show the parent alone.

system: Kunming mice; assay: Acetic Acid Twisting Method in mice (antalgic effect); format: in vivo; details: Mus musculus, po; 20 mg/kg, gavage administration, mice; read-out: twisting response inhibiting rate (%)

With `CC(=O)Oc1ccccc1C(=O)O` [Aspirin, reference compound] the inhibition in vivo at 20 mg/kg was 90%.

same assay, conditions: Mus musculus, sc, read-out: antalgic

Point of comparison: `O=C(CC1(O)CCN(c2ncccn2)CC1)c1ccccc1` [III-9, N-(2-pyrimidinyl)-4-benzoylmethyl-4-piperidinol hydrochloride], inhibition in vivo at 20 mg/kg 57%. Against it:
- O=C(CC1(O)CCN(Cc2ccccc2)CC1)c1ccc(N2CCOCC2)cc1 [III-36, N-benzyl-4-((4-morpholinobenzoyl)methyl)-4-piperidinol hydrochloride] — lower, 41%
- OC(CC1(O)CCN(Cc2ccc3c(c2)CCN3)CC1)c1ccccc1 (stereo not drawn) [Compound V-6, N-(5-indolinyl)methyl-4-(2-hydroxy-2-phenylethyl)-4-piperidinol hydrochloride] — higher, 69%
- C[C@@H](c1ccccc1)N1CCC(O)(CC(=O)c2ccccc2)CC1 [III-18, (S)—N-(1-phenylethyl)-4-benzoylmethyl-4-piperidinol hydrochloride] — higher, 84%
- CC(C(=O)c1ccccc1)C1(O)CCN(Cc2ccccc2)CC1 (stereo not drawn) [III-39, N-benzyl-4-(1-benzoylethyl)-4-piperidinol hydrochloride] — lower, 56%
- O=C(CC1(O)CCN(Cc2ccc(N3CCCC3)cc2)CC1)c1ccccc1 [III-24, N-(4-(1-pyrrolidinyl)benzyl)-4-benzoylmethyl-4-piperidinol hydrochloride] — higher, 62%
- O=C(CC1(O)CCN(Cc2ccccc2)CC1)c1ccc(Cl)cc1 [III-33, N-benzyl-4-(p-chlorobenzoylmethyl)-4-piperidinol hydrobromide] — lower, 26%
- O=C(CC1(O)CCN(Cc2ccccc2)CC1)c1ccc2c(c1)OCO2 [III-38, N-benzyl-4-(2-(benzo[d][1,3]dioxol-5-yl)-2-oxoethyl)-4-piperidinol hydrochloride] — lower, 46%
- O=C(CC1(O)CCN(Cc2ccccc2)CC1)c1ccccn1 [III-34, N-benzyl-4-(2-pyridinylformylmethyl)-4-piperidinol hydrobromide] — higher, 75%
- CC(c1ccc2c(c1)OCO2)N1CCC(O)(CC(=O)c2ccccc2)CC1 (stereo not drawn) [III-22, N-(1-(benzo[d][1,3]dioxol-5-yl)ethyl)-4-benzoylmethyl-4-piperidinol hydrochloride] — lower, 43%
- COc1ccc(C(C)N2CCC(CC(=O)c3ccccc3)(OC)CC2)cc1 (stereo not drawn) [VIII-2, N-(1-(p-methoxyphenyl)ethyl)-4-benzoylmethyl-4-methoxylpiperidine hydrochloride] — higher, 76%
- COc1ccc(CN2CCC(O)(CC(O)c3ccccc3)CC2)cc1 (stereo not drawn) [Compound V-1, N-p-methoxybenzyl-4-(2-hydroxy-2-phenylethyl)-4-piperidinol hydrochloride] — higher, 76%
- O=C(CC1(O)CCN(Cc2ncccn2)CC1)c1ccccc1 [III-10, N-(2-pyrimidinyl)methyl-4-benzoylmethyl-4-piperidinol hydrochloride] — lower, 51%
- O=C(CC1(O)CCN(Cc2ccccn2)CC1)c1ccccc1 [III-8, N-(2-pyridyl)methyl-4-benzoylmethyl-4-piperidinol hydrochloride] — higher, 77%
- COC1(CC(=O)c2ccccc2)CCN(C(C)c2ccc(N3CCOCC3)cc2)CC1 (stereo not drawn) [VIII-3, N-(1-(4-morpholinophenyl)ethyl)-4-benzoylmethyl-4-methoxylpiperidine hydrochloride] — higher, 60%
- O=C1Cc2cc(CN3CCC(O)(CC(=O)c4ccccc4)CC3)ccc2N1 [III-29, N-(2-oxo-5-indolinyl)methyl-4-benzoylmethyl-4-piperidinol hydrochloride] — lower, 45%
- O=C(CC1(O)CCN(c2ccc3ccccc3n2)CC1)c1ccccc1 [III-11, N-(2-quinolyl)-4-benzoylmethyl-4-piperidinol hydrochloride] — lower, 44%
- CC(c1ccc(N2CCOCC2)cc1)N1CCC(O)(CC(=O)c2ccccc2)CC1 (stereo not drawn) [III-27, N-(1-(4-morpholinophenyl)ethyl)-4-benzoylmethyl-4-piperidinol hydrochloride] — higher, 92%
- COc1ccc(C(=O)CC2(O)CCN(Cc3ccccc3)CC2)cc1 [III-32, N-benzyl-4-(p-methoxybenzoylmethyl)-4-piperidinol hydrobromide] — lower, 49%
- CC(c1ccc(N2CCOCC2)cc1)N1CCC(O)(CC(O)c2ccccc2)CC1 (stereo not drawn) [Compound V-8, N-(1-(4-morpholinophenyl)ethyl)-4-(2-hydroxy-2-phenylethyl)-4-piperidinol hydrochloride] — higher, 77%
- CC(c1ccc(N2CCCC2)cc1)N1CCC(F)(CC(=O)c2ccccc2)CC1 (stereo not drawn) [IX-4, N-(1-(4-(pyrrolidinyl)phenyl)ethyl)-4-benzoylmethyl-4-fluoropiperidine hydrochloride] — higher, 64%
- CC(c1ccccc1)N1CCC(O)(CC(=O)c2ccccc2)CC1 (stereo not drawn) [III-16, N-(1-phenylethyl)-4-benzoylmethyl-4-piperidinol hydrochloride] — lower, 33%
- O=C(CC1(F)CCN(Cc2ccc3c(c2)OCO3)CC1)c1ccccc1 [IX-2, N-(benzo[d][1,3]dioxol-5-ylmethyl)-4-benzoylmethyl-4-fluoropiperidine hydrochloride] — lower, 45%
- OC(CC1(O)CCN(Cc2ccc3c(c2)OCO3)CC1)c1ccccc1 (stereo not drawn) [Compound V-4, N-(benzo[d][1,3]dioxol-5-ylmethyl)-4-(2-hydroxy-2-phenylethyl)-4-piperidinol hydrochloride] — higher, 76%
- CC(c1ccc(F)cc1)N1CCC(O)(CC(=O)c2ccccc2)CC1 (stereo not drawn) [III-20, N-(1-(4-fluorophenyl)ethyl)-4-benzoylmethyl-4-piperidinol hydrochloride] — lower, 37%
- O=C(CC1(O)CCN(Cc2ccccc2)CC1)c1ccc(N2CCCC2)cc1 [III-35, N-benzyl-4-(4-(pyrrolidinyl)benzoylmethyl)-4-piperidinol hydrochloride] — higher, 64%
- CC(c1ccc(N2CCCC2)cc1)N1CCC(O)(CC(=O)c2ccccc2)CC1 (stereo not drawn) [III-25, N-(1-(4-(1-pyrrolidinyl)phenyl)ethyl)-4-benzoylmethyl-4-piperidinol hydrochloride] — higher, 80%
- O=C(CC1(O)CCN(Cc2ccc3c(c2)OCO3)CC1)c1ccccc1 [III-13, N-(benzo[d][1,3]dioxol-5-ylmethyl)-4-benzoylmethyl-4-piperidinol hydrochloride] — lower, 37%
- O=C(CC1(O)CCN(Cc2ccc(N3CCOCC3)cc2)CC1)c1ccccc1 [III-26, N-(4-morpholinobenzyl)-4-benzoylmethyl-4-piperidinol hydrochloride] — higher, 64%
- COc1ccc(C(C)N2CCC(Cl)(CC(=O)c3ccccc3)CC2)cc1 (stereo not drawn) [IX-5, N-(1-(p-methoxyphenyl)ethyl)-4-benzoylmethyl-4-chloropiperidine hydrochloride] — higher, 68%
- O=C(CC1(Cl)CCN(Cc2ccc3c(c2)OCO3)CC1)c1ccccc1 [IX-6, N-(benzo[d][1,3]dioxol-5-ylmethyl)-4-benzoylmethyl-4-chloropiperidine hydrochloride] — higher, 59%
- COc1ccccc1N1CCC(O)(CC(O)c2ccccc2)CC1 (stereo not drawn) [Compound V-5, N-(2-methoxyphenyl)-4-(2-hydroxy-2-phenylethyl)-4-piperidinol hydrochloride] — higher, 72%
